Patent US20120028284A1, “TRAPPING COMPOUNDS AND METHOD FOR IDENTIFYING REACTIVE METABOLITES” (EISAI R&D MANAGEMENT CO., LTD., priority 2009, published 2012)

What was measured:
[1] = system: human liver microsomal preparations (cytochrome P450 enzyme preparations); assay: Trapping of "soft" and "hard" reactive metabolites in microsomal incubations with compound of formula (I), neutral loss LC-MS/MS; format: in vitro ADME; details: 50 μM test compound, 2 mg/ml microsomal proteins, 3 mM NADPH, 37° C.; for adducts of reactive metabolites with ECHK detected: trapping agent ECHK 1 mM; for adducts of reactive metabolites with ECHK detected / adducts of reactive metabolites with EHCK detected: neutral loss scanning of 129 Da; for adducts of reactive metabolites with ECO detected: trapping agent ECO 1 mM, neutral loss scanning of 129 Da or 147 Da; for adducts of reactive metabolites with EHCK detected: trapping agent EHCK 1 mM
Experimental: All microsomal incubations described herein were performed at 37° C. in a water bath or on a heat block. The test compound was mixed with human liver microsomal preparations (cytochrome P450 enzyme preparations) in 100 mM potassium phosphate buffer (pH7.4) including 0.1 mM EDTA and the compound of formula (I). The resulting mixtures were pre-warmed at 37° C. for 5 min. To the reaction mixtures was then added the co-factor-NADPH (to initiate the reaction) to yield a final volume of 500 μl.
The resulting reaction mixtures contained 50 μM test compounds, 2 mg/ml microsomal proteins, 1 mM mixture of compound of formula (I) and 3 mM NADPH.
After 15 or 60 min incubation, the reactions were terminated by the addition of 1000 μl of 50% methanol/50% acetonitrile. The resulting mixtures were centrifuged at 10,000 g for 10 min at 4° C. to pellet the precipitated protein, and the supernatants were dried up. The resulting residue was solubilized with 50% methanol.
(§1) MS analyses were performed on an LTQ Orbitrap FTMS (Thermo Fisher Scientific, Inc., Bremen, Germany). The ESI ion source was operated in the positive ion mode. The entire eluent was sprayed into the mass spectrometer at +5 kV and desolvation of the solvent droplets was further aided by a heated capillary temperature of 350° C. Mass spectra collected in the neutral loss scanning mode were obtained by scanning over the range m/z 200-1100 at 30000 resolution.
For complete profiling of reactive metabolites, samples were first subjected to chromatographic separations with a Prominence LC system with an auto-sampler (Shimadzu Corp., Kyoto, Japan) and eluents were introduced to the LTQ Orbitrap FTMS operated in the neutral loss scanning mode. An L-column ODS (Octadecylsilyl-silica gels; 2.1×150 mm, Chemicals Evaluation and Research Institute, Tokyo, Japan) was used for the chromatographic separation. The chromatographic system used a binary solvent system delivered as a gradient of solvent A (5 mM ammonium acetate) and solvent B (95% acetonitrile included 5 mM ammonium acetate). […] The solvent composition was then held at 100% B for 8 min before re-equilibration at initial conditions. LC-MS/MS analyses were carried out on 20 μl aliquots of cleaned samples. Data acquisition was carried out using the Xcaliber version 2.0 software (Thermo Fisher Scientific, Inc., Bremen, Germany).

[2] = Trapping of acylglucuronides by incubation with compound of formula (I) in buffer, neutral loss LC-MS/MS; details: 100 μM diclofenac acylglucuronide, pH7.4 buffer, 60 min, 37° C.
Experimental: The resulting mixtures were pre-warmed at 37° C. for 5 min.
as §1
For complete profiling of reactive metabolites, samples were first subjected to chromatographic separations with a Prominence LC system with an auto-sampler (Shimadzu Corp., Kyoto, Japan) and eluents were introduced to the LTQ Orbitrap FTMS operated in the neutral loss scanning mode. […] The solvent composition was then held at 100% B for 8 min before re-equilibration at initial conditions. […] Data acquisition was carried out using the Xcaliber version 2.0 software (Thermo Fisher Scientific, Inc., Bremen, Germany).

Compound | adducts of reactive metabolites with ECHK detected [1] | adducts of reactive metabolites with ECO detected [1] | adducts of reactive metabolites with EHCK detected [1] | adduct of acylglucuronide with ECHK detected ([2]; trapping agent ECHK 1 mM, neutral loss scanning of 129 Da) | adduct of acylglucuronide with ECO detected ([2]; trapping agent ECO 1 mM, neutral loss scanning of 129 Da and 147 Da) | adduct of acylglucuronide with EHCK detected ([2]; trapping agent EHCK 1 mM, neutral loss scanning of 129 Da)
O=C(O)Cc1ccccc1Nc1c(Cl)cccc1Cl [diclofenac, Diclofenac] | two adducts | two adducts | two adducts | – | – | –
O=C(Cc1ccccc1Nc1c(Cl)cccc1Cl)O[C@@H]1O[C@H](C(=O)O)[C@@H](O)[C@H](O)[C@H]1O [diclofenac acylglucuronide, Diclofenac acylglucuronide] | – | – | – | adduct of diclofenac acylglucuronide with ECHK which was detected | adduct of diclofenac acylglucuronide with ECO which was detected | adduct of diclofenac acylglucuronide with EHCK which was detected
c1coc(-c2cccs2)c1 [2-[2-thienyl]-furan, 2-[2-Thienyl]-furan] | three adducts | three adducts | three adducts | – | – | –
